Results taken from patent EP4293019A1, “4-SUBSTITUTED (1H-BENZO[D]IMIDAZOL-2-YL)-1H-PYRAZOLES AS BUB1 INHIBITORS USEFUL FOR TREATING CANCERS” (Netherlands Translational Research Center Holding B.V., priority 2022, dated 2023).

What was measured:
U2OS cells = test: Cellular proliferation assay (SRB proliferation assay); format: cell-based; settings: Homo sapiens, 72 h treatment, SRB staining, N=2, n=3
Description: This protocol describes how the Cellular Proliferation Assay was performed to determine pIC50 values of compounds of general formula (I) against U2OS cells.
U2OS (human osteosarcoma) cells were purchased at ATCC and were tested on regular basis for mycoplasma contamination. Cultures were discarded after 2-3 months of use. Cells were cultured at 37°C under 7% CO2 in DMEM (Sigma Aldrich, D6546) supplemented with GlutaMAX (2 mM, ThermoFisher), 10% (v/v) heat-inactivated newborn calf serum (Seradigm), penicillin and streptomycin (200 µg/mL each, Duchefa) (complete medium). Medium was refreshed every 2-3 days and cells were passaged by trypsinization twice a week at 80-90% confluence. Cell viability was assessed by Trypan Blue exclusion and cell quantification using a TC20™ Automated Cell Counter (Bio-Rad).
Assays were performed in 96-well plates (Greiner, Cellstar, 655180) by seeding (day 0), treatment (day 1) and subsequent incubation for 72 h. Cells were fixed, stained and staining was subsequently dissolved after which absorbance was measured. Each assay included the following controls: (i) a background control (to which no cells were added), (ii) t0 controls (separate assay plate in which cells were fixed on day 1, used as 0% proliferation), (iii) nontreated controls (present in each assay plate, treated with vehicle and used as 100% proliferation). Cells were treated with different concentrations of indicated inhibitor. All inhibitors were tested in two separate assays and all inhibitor concentrations were tested in triplicate per assay (N=2, n=3).
For each assay, U2OS cells from 10 cm dishes were seeded into 96-well plates (3,000 cells/well) and subsequently incubated overnight to allow for cell adherence. Stocks of inhibitor and vehicle (all in DMSO) were diluted in complete medium to obtain 2x working solutions (1% DMSO). Cell medium was replaced by fresh complete medium (50 µL), treatment was started by addition of the 2x working solutions (50 µL) and plates were incubated at 37°C for 72 h. Cell medium was replaced by fresh serum free medium (100 µL) and cells were fixed by addition of 30 µL 50% (w/v) aq. trichloroacetic acid after which the plates were incubated at 4°C for 60 min. Wells were emptied by shaking the plates upside down after which wells were washed three times with demineralized water and air-dried overnight. To each well, 60 µL of SRB solution (0.4% (w/v) in 1% aq. acetic acid) was added and plates were incubated for 30 min. The excess SRB was removed and the wells were washed three times with 1% aq. acetic acid and air-dried overnight. Bound SRB was redissolved by addition of 150 µL 10 mM TRIS (free-base) and absorbance was measured at 540 nm on a CLARIOstar plate reader. Data was normalized between t0 and nontreated controls and plotted using GraphPad Prism 8.0 using "Nonlinear regression (curve fit)" and "log(inhibitor) vs. normalized response - Variable slope" to determine pIC50 values.
Inhibition is indicated as pIC50 ("-" = not measured). Compounds having an activity designated as "A" provided an pIC50 ≥ 6.0 (IC50 ≤1 µM); compounds having an activity designated as "B" provided an 5.3 ≤ pIC50 < 6.0 (1 µM<IC50 ≤ 5 µM); compounds having an activity designated as "C" provided an 5.0 ≤ pIC50 < 5.3 (5 µM < IC50 ≤ 10 µM); compounds having an activity designated as "D" provided an 5.0 < pIC50 ≤ 4.7 (10 µM < IC50 ≤ 20 µM); and compounds having an activity designated as "E" provided an pIC50 < 4.7 (IC50 >20 µM).

hBUB1 = biological target: T1, hBUB1 (Homo sapiens, UniProt O43683); test: hBUB1 kinase activity assay (biochemical fluorescence polarization assay, IMAP); settings: BUB1/BUB3 3.26 nM, ATP 15 µM, BUB1/BUB3 substrate 75 nM; N=2, n=2; read-out: hBUB1 pIC50 (converted)
T1 construct: purchased Carna Biosciences 05-187
Description: This protocol describes how the Kinase Activity Assay was performed to determine pIC50 values of compounds of general formula (I) against hBUB1.
Assays were performed in 384-well plates (Greiner, black, flat bottom, 781076) by sequential addition (final concentrations are indicated) of inhibitor (5 µL, 0.3 nM - 1 µM or 3 nM - 10 µM), BUB1/BUB3 (5 µL, 3.26 nM, Carna Biosciences (05-187), lot: 15CBS-0644 D), ATP (5 µL, 15 µM) and BUB1/BUB3 substrate (5 µL, 75 nM, Carna Biosciences (05-187MSSU)), all as 4x working solutions. The final concentration of DMSO was 1%. Assay reactions were stopped by addition of IMAP progressive binding reagent (20 µL, 1200x diluted, Molecular Devices (R8155), lot: 3117896). Each assay included the following controls: (i) a background control (treated with vehicle instead of inhibitor and BUB1/BUB3 substrate), (ii) MIN controls (treated with 5 µM BAY1816032 (MedChem Express) as inhibitor, used as 0% BUB1 activity) and (iii) MAX controls (treated with vehicle instead of inhibitor, used as 100% BUB1 activity). All inhibitors were tested in two separate assays and all inhibitor concentrations were tested in duplicate per assay (N=2, n=2).
For each assay, assay buffer (AB) was freshly prepared and consisted of 20 mM HEPES (prepared by diluting 1 M HEPES, pH 7.2), 5 mM MgCl2, 0.01% Tween-20 and 1 mM DTT. Stocks of inhibitors (in DMSO) were diluted in AB to obtain 4x working solutions (4% DMSO) and 5 µL was added to the assay plate. BUB1/BUB3 (3.26 µM (486 µg/mL) in storage buffer) was diluted in AB to obtain 13.0 nM of which 5 µL was added to all wells of the assay plate. The assay plate was centrifuged (1 min, 200 g) and incubated at RT for 30 min. ATP (4 mM in MilliQ) was diluted in AB to obtain 60 µM of which 5 µL was added to each well. BUB1/BUB3 substrate (1 mM) was diluted in 20 mM HEPES (prepared by diluting 1 M HEPES (pH 7.2) in MilliQ) to obtain 80 µM (this solution was freshly prepared every assay) and further diluted in AB to obtain 300 nM after which 5 µL was added to each well of the assay plate except for background control wells. The assay plate was centrifuged (1 min, 200 g) and incubated at RT in the dark for 180 min. IMAP progressive binding buffer A (5x) and IMAP progressive binding buffer B (5x) were mixed in a ratio to obtain 30% buffer A and 70% buffer B, which was subsequently diluted 5x in MilliQ. IMAP progressive binding reagent was diluted 600x in aforementioned mixture of buffer A and B (to obtain a 2x working solution) of which 20 µL was added to each well of the assay plate. The assay plate was centrifuged (1 min, 200 g) and incubated at RT in the dark for 90 min. Fluorescence polarization was measured on a CLARIOstar plate reader using the following settings: (i) optic settings → excitation = F: 482-16, dichroic = F: LP 504, emission = F: 530-40, (ii) optic = top optic, (iii) speed/precision = maximum precision, (iv) focus adjustment was performed for every assay and (v) gain adjustment was done by setting the target mP value to 35 mP for one of the MIN control wells. Data was normalized between MIN and MAX controls and data was plotted using GraphPad Prism 8.0 using "Nonlinear regression (curve fit)" and "log(inhibitor) vs. normalized response - Variable slope" to determine pIC50 values.
Inhibition is indicated as pIC50 ("-" = not measured). Compounds having an activity designated as "A" provided an pIC50 ≥ 7.0 (IC50 ≤100 nM); compounds having an activity designated as "B" provided an 6.3 ≤ pIC50 < 7.0 (100 nM<IC50 ≤ 500 nM); compounds having an activity designated as "C" provided an 6.0 ≤ pIC50 < 6.3 (500 nM < IC50 ≤ 1 µM); compounds having an activity designated as "D" provided an 6.0 < pIC50 ≤ 5.0 (1 µM < IC50 ≤ 10 µM); and compounds having an activity designated as "E" provided an pIC50 < 5.0 (IC50 >10 µM).

T1 sequence (O43683 whole entry): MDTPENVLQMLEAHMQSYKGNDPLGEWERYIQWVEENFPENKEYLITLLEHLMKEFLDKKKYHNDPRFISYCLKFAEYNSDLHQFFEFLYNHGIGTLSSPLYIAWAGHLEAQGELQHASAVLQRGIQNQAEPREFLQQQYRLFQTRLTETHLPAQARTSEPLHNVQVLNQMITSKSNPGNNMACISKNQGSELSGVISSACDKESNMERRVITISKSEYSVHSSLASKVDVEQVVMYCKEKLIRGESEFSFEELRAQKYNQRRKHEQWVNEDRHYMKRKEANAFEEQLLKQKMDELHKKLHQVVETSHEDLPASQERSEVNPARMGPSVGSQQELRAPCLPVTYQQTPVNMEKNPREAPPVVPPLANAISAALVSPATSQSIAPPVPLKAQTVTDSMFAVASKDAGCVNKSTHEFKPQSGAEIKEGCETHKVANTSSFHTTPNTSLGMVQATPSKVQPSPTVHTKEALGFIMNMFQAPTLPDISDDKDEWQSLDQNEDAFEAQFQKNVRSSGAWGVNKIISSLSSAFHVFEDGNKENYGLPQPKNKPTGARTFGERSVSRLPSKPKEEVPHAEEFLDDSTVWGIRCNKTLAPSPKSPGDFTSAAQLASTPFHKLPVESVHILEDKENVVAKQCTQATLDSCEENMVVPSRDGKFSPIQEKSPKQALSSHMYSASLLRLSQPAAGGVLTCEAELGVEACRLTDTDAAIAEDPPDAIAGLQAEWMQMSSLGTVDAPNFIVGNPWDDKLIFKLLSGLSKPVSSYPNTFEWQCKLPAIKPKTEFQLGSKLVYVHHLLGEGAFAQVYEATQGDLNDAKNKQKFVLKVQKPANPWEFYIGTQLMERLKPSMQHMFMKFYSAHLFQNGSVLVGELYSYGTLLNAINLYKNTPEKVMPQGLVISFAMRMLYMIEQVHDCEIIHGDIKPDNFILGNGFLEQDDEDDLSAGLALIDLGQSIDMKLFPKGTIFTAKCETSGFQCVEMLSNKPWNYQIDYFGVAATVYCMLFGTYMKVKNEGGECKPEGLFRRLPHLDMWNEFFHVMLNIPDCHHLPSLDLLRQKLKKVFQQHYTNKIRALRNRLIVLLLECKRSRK
T1 sequence (O43684 whole entry partner): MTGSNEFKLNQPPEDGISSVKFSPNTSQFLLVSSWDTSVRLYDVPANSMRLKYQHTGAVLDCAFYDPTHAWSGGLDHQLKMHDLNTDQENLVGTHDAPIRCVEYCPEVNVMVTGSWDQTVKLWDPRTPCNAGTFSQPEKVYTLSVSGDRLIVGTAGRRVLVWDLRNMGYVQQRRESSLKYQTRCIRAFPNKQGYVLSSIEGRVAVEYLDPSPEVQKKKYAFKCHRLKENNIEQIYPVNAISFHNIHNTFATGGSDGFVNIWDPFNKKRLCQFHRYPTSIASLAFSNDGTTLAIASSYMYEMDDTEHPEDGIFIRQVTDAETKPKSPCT

SMILES	IC50 (U2OS cells) [nM]	IC50 (hBUB1) [nM]
C#Cc1cccc(-c2ncc(OC)c(Nc3c[nH]nc3-c3nc4cc(CN5CCOCC5)ccc4[nH]3)n2)c1 [Compound 52, 2-(3-Ethynylphenyl)-5-methoxy-N-(3-(5-(morpholinomethyl)-1H-benzo[d]imidazol-2-yl)-1H-pyrazol-4-yl)pyrimidin-4-amine]	≤ 1000	≤ 100
COc1cnc(-c2cc(Cl)ccc2F)nc1Nc1c[nH]nc1-c1nc2cc(CN3CCOCC3)ccc2[nH]1 [Compound 57, 2-(5-Chloro-2-fluorophenyl)-5-methoxy-N-(3-(5-(morpholinomethyl)-1H-benzo[d]imidazol-2-yl)-1H-pyrazol-4-yl)pyrimidin-4-amine]	≤ 1000	≤ 100
c1ccc(Oc2nccc(Nc3c[nH]nc3-c3nc4cc(CN5CCOCC5)ccc4[nH]3)n2)cc1 [Compound 17, N-(3-(5-(morpholinomethyl)-1H-benzo[d]imidazol-2-yl)-1H-pyrazol-4-yl)-2-phenoxypyrimidin-4-amine]	5010 to 10000	100 to 501
Clc1cccc(-c2nccc(Nc3c[nH]nc3-c3nc4cc(CN5CCOCC5)ccc4[nH]3)n2)c1 [Compound 41, 2-(3-Chlorophenyl)-N-(3-(5-(morpholinomethyl)-1H-benzo[d]imidazol-2-yl)-1H-pyrazol-4-yl)pyrimidin-4-amine]	1000 to 5010	≤ 100
COc1cnc(-c2c(F)ccc(Cl)c2F)nc1Nc1c[nH]nc1-c1nc2cc(CN3CCOCC3)ccc2[nH]1 [Compound 59, 2-(3-Chloro-2,6-difluorophenyl)-5-methoxy-N-(3-(5-(morpholinomethyl)-1H-benzo[d]imidazol-2-yl)-1H-pyrazol-4-yl)pyrimidin-4-amine]	≤ 1000	≤ 100
COc1cnc(-c2cccc(Cl)c2)nc1Nc1c[nH]nc1-c1nc2cc(CN3CCOCC3)ccc2[nH]1 [Compound 51, 2-(3-Chlorophenyl)-5-methoxy-N-(3-(5-(morpholinomethyl)-1H-benzo[d]imidazol-2-yl)-1H-pyrazol-4-yl)pyrimidin-4-amine]	≤ 1000	≤ 100
C#Cc1cccc(-c2nccc(Nc3c[nH]nc3-c3nc4cc(CN5CCOCC5)ccc4[nH]3)n2)c1 [Compound 42, 2-(3-Ethynylphenyl)-N-(3-(5-(morpholinomethyl)-1H-benzo[d]imidazol-2-yl)-1H-pyrazol-4-yl)pyrimidin-4-amine]	1000 to 5010	≤ 100
c1ccc(-c2nccc(Nc3c[nH]nc3-c3nc4cc(CN5CCOCC5)ccc4[nH]3)n2)cc1 [Compound 16, N-(3-(5-(morpholinomethyl)-1H-benzo[d]imidazol-2-yl)-1H-pyrazol-4-yl)-2-phenylpyrimidin-4-amine]	1000 to 5010	100 to 501
